Earlier results in paper PMC3901259, “Characterisation of the Metabolites of 1,8-Cineole Transferred into Human Milk: Concentrations and Ratio of Enantiomers” (Metabolites, 2013).
Like-named read-outs stand apart in the source and are kept apart here.

Assays:
rats = test system: rats; design: method as in PMID 6068552; settings: cited from earlier work
[1] = design: method as in PMID 22405404; settings: cited from earlier work

For `CC12CCC(CC1)C(C)(C)O2` [1,8-cineole, 1,8-Cineole], the “acute oral LD50” value (rats) is given as 2.5 g/kg bodyweight, the “Concentration of 1,8-cineole in human milk” value (“Concentration of 1,8-cineole” below) ([1]; sample A-1a (no odour), beyond calibration range, approximation) is given as 2.43 µg/kg and the “1,8-cineole: concentration calculated with the last calibration point (limit in parentheses)” value ([1]; sample A-1a (no odour)) is given as less than 13.65 µg/kg. The “Concentration of 1,8-cineole” value ([1]; sample A-1b (odour yes)) was 134.72 µg/kg, the “Concentration of 1,8-cineole” value ([1]; sample B-1 (odour yes)) was 399.39 µg/kg and the “Concentration of 1,8-cineole” value ([1]; sample B-2a (no odour)) was 0.98 µg/kg. For the same compound, the “Concentration of 1,8-cineole” value ([1]; sample B-2b (odour yes)) was 70.97 µg/kg, the “Concentration of 1,8-cineole” value ([1]; sample B-2c (no odour)) was 14.82 µg/kg and the “Concentration of 1,8-cineole” value ([1]; sample C (no odour)) was 13.56 µg/kg. The “Concentration of 1,8-cineole” value ([1]; sample D-1 (no odour), beyond calibration range, approximation) was 5.75 µg/kg, the “1,8-cineole: concentration calculated with the last calibration point (limit in parentheses)” value ([1]; sample D-1 (no odour)) was less than 10.59 µg/kg and the “Concentration of 1,8-cineole” value ([1]; sample D-2 (odour yes)) was 226.09 µg/kg. The “Concentration of 1,8-cineole” value ([1]; sample E-1 (no odour), beyond calibration range, approximation) was 3.19 µg/kg, the “1,8-cineole: concentration calculated with the last calibration point (limit in parentheses)” value ([1]; sample E-1 (no odour)) was less than 13.18 µg/kg and the “Concentration of 1,8-cineole” value ([1]; sample E-2 (odour yes)) was 504.93 µg/kg. For the same compound, the “Concentration of 1,8-cineole” value ([1]; sample F (no odour), two capsules, beyond calibration range, approximation) was 20.23 µg/kg, the “1,8-cineole: concentration calculated with the last calibration point (limit in parentheses)” value ([1]; sample F (no odour), two capsules) was less than 26.14 µg/kg and the “Concentration of 1,8-cineole” value ([1]; sample G (odour yes)) was 194.46 µg/kg.
